# Measured values: a melting point compilation (Tetko et al.; mined from patent text by program, amines drawn as free bases though some values may be those of a salt)
row,Structure (SMILES),melting point [°C]
1,Fc1ccc(-c2ncn(CCCN3CCOCC3)c2-c2ccncc2)cc1,149 to 150
2,Cc1cn(C(C)C(=O)N(C)C)nc1-c1ccccc1Cl (stereo not drawn),98.5 to 100
3,CCCCCCCCCCCCCCCCCCOc1cc(O)cc(C(=O)OCc2ccccc2)c1,72 to 75
4,C=C1C(=O)NC(=O)N1c1cccc(Cl)c1Cl,201 to 203
5,CC(C)OP(=O)(/C=C/CCn1cnc2c(Cl)ncnc21)OC(C)C,105
6,O=C(CBr)c1ccc(OCc2ccccc2)c([N+](=O)[O-])c1,136
7,CCCCCc1cnc(N2CCC(c3ccc(COc4ccc(C#N)c(F)c4)nc3)CC2)nc1,92 to 94
8,O=C1C=C(NC(=O)C(=O)c2cn(Cc3cccc(Br)c3)c3ccccc23)CO1,278 to 280
9,O=S(=O)(c1ccc(O)c(-c2ccccc2)c1)c1ccc(O)c(-c2ccccc2)c1,243 to 245
10,CCCc1nc(I)c(C=O)[nH]1,141 to 142
11,COc1cc2c(cc1OC)-c1c(C#N)sc(=S)n1CC2,228
12,CN(C)CCCCCCCOc1ccc2oc(-c3ccccc3)cc(=O)c2c1,90 to 91
13,N#Cc1cnccc1-c1c(-c2ccccc2)nn2ccccc12,208 to 210
14,O=C1Nc2cccnc2N(CCCCCCN2CCCCC2)c2ccccc21,131 to 132
15,O=C1CCC(N2CCC(n3c(=O)[nH]c4ccccc43)CC2)CC1,221 to 223
16,CC12CCC3C(CC=C4CC(O)CCC43CSSCCO)C1CCC2=O (stereo not drawn),129 to 130
17,COc1ccc(Cn2c(=O)c3ccccc3n(CCCCBr)c2=O)cc1,124 to 125
18,Cc1ccc(Cl)c2[nH]c(=O)oc(=O)c12,248 to 250
19,CCCOC(=O)c1c(CSc2nccn2C)nc2cc(OC)c(OC)cc2c1-c1ccc(OC)c(OC)c1,131 to 132
20,Cc1cc(C)nc(-n2ccnc2S(=O)Cc2ccccc2NC=O)c1 (stereo not drawn),160 to 162
21,O=C(O)C(=O)c1ccc(OCc2ccccc2)cc1,97 to 98
22,CCOC(=O)Cc1csc(NC(N)=O)n1,173 to 174
23,CCCCCCCCCCCCCCCCNC(=O)c1ccc(-n2oc(C(C)(C)C)c(COc3ccc(N)cc3)c2=O)c([N+](=O)[O-])c1,220

row,Structure (SMILES),melting point [°C]
1,CN(c1cc(F)c(C#N)cc1F)c1nnnn1-c1ccc(F)cc1,162
2,CCN1C(=O)N(c2c(F)c(OC)cc(OC)c2F)Cc2cnc(SC)nc21,165 to 168
3,O=C(O)c1cc(OCc2ccccc2)c(OCc2ccccc2)c(OCc2ccccc2)c1,194 to 195
4,Cc1cc(-c2nc3cc(-c4ccncc4)cc(N)n3n2)oc1C,275 to 277
5,COc1cc2nc(N3CCN(C(=O)CC(=O)c4ccccc4)CC3)nc(N)c2cc1OC,214 to 215
6,O=C(OCc1ccccc1)c1ccc(O)cc1O,83 to 88
7,COc1ccc2c(c1)C(=O)c1cc(-c3nnn[nH]3)ccc1C2=O,265 to 266
8,O=[N+]([O-])c1ccc(-n2nc3c(c2O)-c2ccccc2CC3)nc1,226 to 227
9,CCCCc1nc2cccc(C(=O)OC)c2n1Cc1ccc(-c2ccccc2-c2nc(=S)o[nH]2)cc1,180 to 181
10,Clc1cc(Cl)cc(-c2cc3cc(Cl)cc(Cl)c3[nH]2)c1,189 to 190
11,C=CCC(CC=C)(CC=C)c1ccc(-c2nc3cc4c(cc3n2CCC)C(=N)NC4=N)cc1,230 to 232
12,O=C1N(Cc2ccc(NC3CCNC3)cc2)c2ccccc2C12COc1cc3c(cc12)OCO3 (stereo not drawn),118 to 121
13,CCn1c(=O)c2[nH]c(/C=C/c3cccc(OC)c3OC)nc2n(CC)c1=O,288 to 289
14,CCCc1nc2c(N)nc3cc(OCc4cccnc4)ccc3c2s1,167 to 169
15,Nc1c(Cl)cc(C(O)CNCCCCCCOCCCCCCc2ncccn2)cc1Cl (stereo not drawn),55 to 57
16,CN(CCc1ccccc1)C(=O)Cc1ccc(OCc2ccccc2)c(/C=C/C(=O)O)c1,48 to 51
17,Fc1cc(Br)ccc1CSc1nc2cnccc2[nH]1,204 to 206
18,CC(C)N(CCOc1cccc2nc(Cl)c3ccccc3c12)C(C)C,88 to 91
19,N#Cc1ccccc1CCC(=O)c1c(O)c2cccnc2n(-c2ccccc2)c1=O,226 to 227
20,CCc1c(C)sc2[nH]c(=O)c(=O)[nH]c12,> 300
21,CCCCn1c(=O)c2c(NC)n[nH]c2n(CCCl)c1=O,270 to 272
22,CCCCCc1cc(OC)c(C2=C[C@H]3CC[C@]2(C(=O)O)C3(C)C)c(OC)c1,84 to 86

# Next, values leading:
row,melting point [°C],Structure (SMILES)
1,140 to 145,CC(C(=O)O)c1ccc2c(c1)Cc1cc(F)ccc1S2 (stereo not drawn)
2,215 to 217,CCCOc1ccc(S(=O)(=O)N2CCN(C(C)=O)CC2)cc1-c1nc2cc(Cl)c([N+](=O)[O-])cc2c(=O)[nH]1
3,105 to 106,O=C1CCC(c2ccc(OC(F)(F)F)cc2)N1 (stereo not drawn)
4,44 to 45,C=CCOC(=O)[C@H](Cc1ccccc1)NC(=O)C(F)(F)F
5,145 to 152,CC(C)c1cc(S(N)(=O)=O)c(C(C)C)cc1Br
6,76 to 79,CSCC(O)COc1cccc2oc(C(=O)O)cc(=O)c12 (stereo not drawn)
7,188,CCCC(=O)NS(=O)(=O)c1cccc(-c2cccc(-c3cc(-c4ccc(C(F)(F)F)cc4)cc(C)n3)n2)c1
8,82,CC(=O)CC(=O)C=Cc1ccccc1
9,174,COc1cc(NC(=O)OCCCN2CCN(c3ccc(Cl)cc3)CC2)cc(OC)c1OC
10,218 to 219,N#Cc1ccc2nc(C(=O)NCc3cccc(CNC(=O)c4nc[nH]n4)c3)[nH]c(=O)c2c1
11,217 to 218,CCN(CC)c1cc2c(cc1C)Nc1c(cc(NC(C)=O)c3ncn(C)c13)O2
12,190 to 192,CC1(C)CC(=O)Nc2ccc(-c3cccc(C#N)c3)cc21
13,190 to 192,COc1ccc2nc(COc3ccc(F)c(C(N)=O)c3F)sc2c1
14,48 to 50,CCOC(=O)c1oc2ccc(Br)c(OC(C)C)c2c1C
15,126 to 128,NC(=O)N(O)CCNC(=O)c1cccc(Oc2cccc(C(F)(F)F)c2)c1
16,295 to 299,Cn1cc(C(N)=O)c(=O)c2cc(F)ccc21
17,144 to 146,CC1(C)OCC(C(O)CNC(=O)CS(=O)(=O)Nc2ccc(F)c(C(F)(F)F)c2)O1 (stereo not drawn)
18,143 to 145,"O=c1[nH]c2cc(Cl)ccc2n1C1CCN(CC2=NOC(c3ccc(F)cc3)C2)CC1 (single isomer, unassigned; (-))"
19,198 to 200,Cn1ncnc1COc1nn2c(-c3ccccc3F)nnc2cc1C12CCC(C1)C2
20,119 to 120,O=C1CCC(c2c[nH]c3ccc(F)cc23)C1 (stereo not drawn)
21,323 to 325,O=C1c2cc(F)ccc2-n2c1nc1cccc(F)c1c2=O
22,107 to 109,C=CCN1C(=O)CCc2cc(Sc3cccc([C@@]4(O)CCO[C@@H](C)C4)c3)ccc21
23,297,COc1ccc(-c2[nH]nc3c2C(=O)c2c(NC(=O)Cc4ccc5c(c4)OCO5)cccc2-3)cc1
24,88 to 89,COC(=O)c1ccc([N+](=O)[O-])cc1C#CC(C)(C)C
25,172 to 174,CCC(CC)(CC(=O)Nc1cccc(/C=C/c2nc(C3CCCC3)cs2)c1)C(=O)O
26,> 250,O=Cc1ccn(-c2cc3c(cc2C(F)(F)F)[nH]c(=O)c(=O)n3CC(=O)O)c1
27,193,Cc1csc2nc(Sc3ccccc3NC(=O)N[C@@H](Cc3ccc(NC(=O)c4c(Cl)cncc4Cl)cc3)C(=O)O)cnc12

row,melting point [°C],Structure (SMILES)
1,> 285,CCCCCc1scc(C(=O)OC)c1NC1=CC(=O)N(CCC)C1
2,87 to 89,O=C1OCCC1C(=O)c1ccc(F)cc1[N+](=O)[O-] (stereo not drawn)
3,86 to 88,CC(C)Oc1ccc(CCCOc2cc(CCC(=O)O)n(-c3ccccc3)n2)c(Oc2ncc(C(F)(F)F)cc2Cl)c1
4,146 to 147,CCCNCCc1c[nH]c2ccc(NC(N)=O)cc12
5,265 to 267,Cc1cc(N2CCN(Cc3ccc(F)cc3)C2=O)sc1C(=O)NCc1nc2ccccc2[nH]1
6,103 to 105,COc1ccc(-c2nc3c(C(=O)NC4CC5CCCC(C4)N5C)cccc3o2)cc1 (stereo not drawn)
7,180,CN1CC(=O)NC1=NC(=O)Nc1cccc(Cl)c1
8,90 to 92,Cc1cc(Oc2c(Cl)cc(C(F)(F)F)cc2Cl)nn1C(=O)NC1CCCC1
9,88 to 90,CN1CCN(c2ccc(F)cc2C=C2CCCN(CCc3ccc(Cl)cc3)C2=O)CC1
10,91 to 92.5,COc1ccc2c(c1)C(=O)C(Cc1ccncc1)CO2 (stereo not drawn)
11,169 to 170,O=C(Nc1ccccn1)c1ccc(OC(F)F)c2oc3ccc(C(F)(F)F)cc3c12
12,129,Cc1ccc(S(=O)(=O)Cc2ccc(C(O)(C(F)(F)F)C(F)(F)F)cc2)cc1
13,217,Cc1cc(C)c(-c2ccc3c(=O)c(C(=O)O)cn(C4CC4)c3c2C)cn1
14,124 to 125,COc1cccc(S(=O)(=O)N2CCc3cc(OCc4ccccc4)c(OC)cc3C2)c1
15,> 300,CN(C)CCNc1ccc([N+](=O)[O-])c2sc3ccc(O)cc3c(=O)c12
16,113 to 140,NS(=O)(=O)c1ccccc1S
17,233 to 234,Cc1cc(OCC(=O)OC(C)C)ccc1NC(=O)NC(=O)c1ccc(C#N)cc1
18,164 to 165,Cn1c(CC(=O)O)ccc1C(=O)c1ccc(F)cc1
19,209 to 210,Cc1noc(NC(=O)N2CCN(c3ccnc(-c4cccc(F)c4F)n3)CC2)c1C
20,70 to 72,COC(=O)c1ccc(OCCCC2Cc3c(c(OC)c(OC)c(OC)c3OC)C2)cc1
21,149 to 153,CCOC(=O)c1c(N2CCCC2)c2cnc(-c3ccccc3)nc2n(CC)c1=O
22,58 to 65,O=C1NC(=O)C(Cc2ccc(SCCc3ccccc3)cc2)S1 (stereo not drawn)
23,158 to 159,O=C(O)CCCc1ccc(S(=O)(=O)Nc2ccccc2)cn1
24,107 to 109,CCCOC(=O)c1cccc2c1S[C@@H](c1ccc(OC)cc1)[C@@H](OC(C)=O)C(=O)N2CCN(C)C (racemic)
25,58 to 61,CCOC(=O)CC(NC(=O)C1CCCCC1)C(=O)c1ccco1 (stereo not drawn)
26,158 to 161,O=C(O)CCCCc1ccn2cncc2c1
